18 molecules from patent US12492197B2, “3,5-disubstituted pyrazole compounds as kinase inhibitors and uses thereof” (IMPACT THERAPEUTICS (SHANGHAI), INC, priority 2019, dated 2025) can be followed below.

For assay [1], the target named is T1, CHK1 kinase (Homo sapiens, UniProt O14757).
T1 construct: purchased Promega V1941
T1 sequence (O14757 1-476): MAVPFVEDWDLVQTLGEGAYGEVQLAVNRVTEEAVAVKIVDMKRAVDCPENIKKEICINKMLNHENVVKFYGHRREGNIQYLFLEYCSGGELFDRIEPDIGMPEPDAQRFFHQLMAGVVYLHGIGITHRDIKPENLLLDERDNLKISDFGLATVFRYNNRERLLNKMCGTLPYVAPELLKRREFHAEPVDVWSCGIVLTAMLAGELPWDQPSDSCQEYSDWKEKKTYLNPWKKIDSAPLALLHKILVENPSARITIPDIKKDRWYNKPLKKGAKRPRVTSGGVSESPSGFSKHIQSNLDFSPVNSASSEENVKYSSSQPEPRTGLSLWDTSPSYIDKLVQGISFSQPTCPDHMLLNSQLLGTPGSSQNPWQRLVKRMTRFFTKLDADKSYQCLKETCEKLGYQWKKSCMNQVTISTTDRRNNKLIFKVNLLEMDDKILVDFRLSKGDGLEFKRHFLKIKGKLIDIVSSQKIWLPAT
Description: CHK1 kinase inhibition, ADP-Glo kinase assay. Format: biochemical. As to conditions: ATP 10 μM, CHK1 1 ng/well; for inhibition at 0.01 µM: compound concentration 10 nM, read-out: Inh % (inhibitory effect on CHK1 kinase activity); for IC50: read-out: IC50 (inhibitory effect on CHK1 kinase activity). How it is done: 2 μL of kinase CHK1 (#V1941, Promega), 1 μL of compound diluted with buffer, and 2 μL of ATP substrate was successively added to a 384-well plate (final concentration of CHK1 was 1 ng/well, ATP was 10 μM). The positive control wells contained CHK1, ATP and DMSO whereas the negative control wells contained ATP, DMSO without enzyme. The mixtures were centrifuged at 1000 rpm for 1 minute and kept in darkness at room temperature for 1 hour to react. Then, 5 μL of ADP-Glo reagent was added to each well and incubated at room temperature for 40 minutes. At the end of incubation, 10 μL of kinase detection reagent was added to each well, and the relative chemiluminescence values (RLU) were measured on Varioskan® Flash (Thermo). The following calculation was performed: Inhibition rate %=(RLU of positive control−RLU of compound)/(RLU of positive control−RLU of negative control)×100. Data were analyzed using GraphPad Prism6.0 and fitted using the curve equation: Y=Bottom+(Top-Bottom)/(1+10^((Log IC50−X)*HillSlope)), and IC50 values were calculated.
(In general: ADP-Glo turns the ADP formed in a reaction into a luminescent signal.)

Assay [2] deals with human breast cancer cell HCC1806. Description: Proliferation of HCC1806 cells, MTT assay. The assay is classed as cell-based. As to conditions: HCC1806, 72 h, 3 days treatment, read-out: IC50 (inhibition of proliferation of HCC1806). How it is done: Newly revived HCC1806 cells (purchased from Guangzhou Genio) were cultured and passaged for at least three generations before use. Cells were used at 90% confluency for experiments. Cells were digested with trypsinase and centrifuged at 800 rpm for 5 minutes. The cell pellets were resuspended in fresh RPMI1640 medium and cells were counted. Cells were seeded on 96-well cell culture plates at 2000 cells/well and incubated overnight at 37° C., 5% CO2. The stock solutions of the test substances (including the test compounds and the reference compound) were serially diluted to 8 concentrations with DMSO at a ratio of 1:3. Five μL of each of the serially diluted solutions were added to 120 μL of medium (diluted by 25 times) and mixed by shaking. […] The cell culture plates were returned to incubator at 37° C., 5% CO2 for 3 days. At the end of treatment the cell viability was determined by MTT colorimetric assay. Cell culture medium in each well was replaced by 100 μL/well of serum-free fresh medium containing MTT (0.5 mg/mL), and the culture was continued for additional 4 hours.
(§1) Data was analyzed by GraphPad Prism 6.0. The inhibitory effects of compounds on cell proliferation were plotted based on cell viability vs. the logarithm of compound concentration. Cell viability %=(ODcompound−ODbackground)/(ODDMSO−ODbackground)×100.
Background: Tetrazolium assays rely on reduction of a dye to a coloured formazan, in cell work by metabolically active cells.

In assay [3] the test system is human colon cancer cell LoVo. The assay is described as follows: Proliferation of LoVo cells, MTT assay. The assay is classed as cell-based. To be noted: 96 h, 4 days treatment, read-out: IC50 (inhibition of proliferation of LoVo). How it is done:
Newly revived LoVo cells (purchased from Shanghai Cell Institute) were cultured and passaged for at least three generations before use. Cells were used at 90% confluence for experiment. Cells were digested with trypsinase and centrifuged at 800 rpm for 5 minutes and the supernatant was discarded. The cell pellets were resuspended in fresh RPMI1640 medium and counted. Cells were seeded on 96-well cell culture plates at 5000 cells/well and incubated overnight at 37° C., 5% CO2. The stock solutions of the test substances (including the test compounds and the reference compound) were serially diluted to 8 concentrations with DMSO at a ratio of 1:3. 5 μL of each series diluted solutions was added to 120 μL of medium (diluted by 25 times) and mixed by shaking. […] The cell culture plates were returned to incubator at 37° C. and 5% CO2 for 4 days. At the end of treatment, the cell viability was determined by MTT colorimetric assay. Cell culture medium in each well was replaced by 100 μL/well of serum-free DMEM medium containing MTT (0.5 mg/mL), and the culture was continued for additional 4 hours. Medium was then discarded and 100 μL/well of DMSO was added.
as §1

SMILES strings stand for the structures.

Regarding `CCc1cnc(Nc2cc(-c3c(OC)cccc3OC[C@H]3CCCNC3)[nH]n2)cn1` [Example 27, (S)-5-ethyl-N-(5-(2-methoxy-6-(piperidin-3-ylmethoxy)phenyl)-1H-pyrazol-3-yl)pyrazin-2-amine], in assay [1], the inhibition at 0.01 µM is 95%. For the same molecule, the IC50 in assay [2] was 129 nM; in assay [3], 83.8 nM.

For the molecule `COc1cccc(OC[C@H]2CCCNC2)c1-c1cc(Nc2ccc(C#N)cn2)n[nH]1` [Example 24, (S)-6-((5-(2-methoxy-6-(piperidin-3-ylmethoxy)phenyl)-1H-pyrazol-3-yl)amino)nicotinonitrile], the inhibition at 0.01 µM in assay [1] stood at 89%. Further, the IC50 in assay [2] turned out to be 69.2 nM; in assay [3], 70.8 nM.

With `COc1cccc(OC[C@H]2CCCN2)c1-c1cc(Nc2cnc(C#N)cn2)n[nH]1` [Example 65, (R)-5-((5-(2-methoxy-6-(pyrrolidin-2-ylmethoxy)phenyl)-1H-pyrazol-3-yl)amino)pyrazine-2-carbonitrile], the IC50 in assay [1] came to 0.26 nM; in assay [2], 11.9 nM; in assay [3], 7.3 nM.

For the molecule `N#Cc1cnc(Nc2cc(-c3c(F)cc(F)cc3OC[C@H]3CCCNC3)[nH]n2)cn1` [Example 56, (S)-5-((5-(2,4-difluoro-6-(piperidin-3-ylmethoxy)phenyl)-1H-pyrazol-3-yl)amino)pyrazine-2-carbonitrile], the values for the IC50 in assay [1], in assay [2] and in assay [3] were 1.02 nM, 27.4 nM and 22.3 nM, respectively.

With `COc1cc(C(F)(F)F)cc(OC[C@H]2CCCNC2)c1-c1cc(Nc2cnc(C#N)cn2)n[nH]1` [Example 45, (S)-5-((5-(2-methoxy-6-(piperidin-3-ylmethoxy)-4-(trifluoromethyl)phenyl)-1H-pyrazol-3-yl)amino)pyrazine-2-carbonitrile], the IC50 in assay [1] was 1.57 nM; in assay [2] it was 8.8 nM; in assay [3], 9.5 nM.

Consider `COc1c(C)ccc(OC[C@H]2CCCNC2)c1-c1cc(Nc2cnc(C#N)cn2)n[nH]1` [Example 42, (S)-5-((5-(2-methoxy-3-methyl-6-(piperidin-3-ylmethoxy)phenyl)-1H-pyrazol-3-yl)amino)pyrazine-2-carbonitrile], for which, in assay [1], the inhibition at 0.01 µM was 85%. Also, the IC50 in assay [2] amounted to 69.2 nM; in assay [3], 66.6 nM.

As for `COc1cc(C)cc(OC[C@H]2CCCNC2)c1-c1cc(Nc2cnc(C#N)cn2)n[nH]1` [Example 43, (S)-5-((5-(2-methoxy-4-methyl-6-(piperidin-3-ylmethoxy)phenyl)-1H-pyrazol-3-yl)amino)pyrazine-2-carbonitrile], the IC50 in assay [1] was 1.17 nM; in assay [2] it was 1.6 nM; in assay [3] it was 1.6 nM.

Regarding `N#Cc1cnc(Nc2cc(-c3c(F)cccc3OC[C@H]3CCCNC3)[nH]n2)cn1` [Example 46, (S)-5-((5-(2-fluoro-6-(piperidin-3-ylmethoxy)phenyl)-1H-pyrazol-3-yl)amino)pyrazine-2-carbonitrile], the IC50 was 0.59 nM in assay [1], 14.7 nM in assay [2] and 13.3 nM in assay [3].

Turning to `COc1cccc(OC[C@H]2CNCCS2)c1-c1cc(Nc2cnc(C#N)cn2)n[nH]1` [Example 76-B, (R)-5-((5-(2-methoxy-6-(thiomorpholin-2-ylmethoxy)phenyl)-1H-pyrazol-3-yl)amino)pyrazine-2-carbonitrile], the IC50 was 1.21 nM in assay [1], 18.5 nM in assay [2] and 17.8 nM in assay [3].

With `N#Cc1cnc(Nc2cc(-c3c(F)cc(Cl)cc3OC[C@H]3CCCNC3)[nH]n2)cn1` [Example 57, (S)-5-((5-(4-chloro-2-fluoro-6-(piperidin-3-ylmethoxy)phenyl)-1H-pyrazol-3-yl)amino)pyrazine-2-carbonitrile], the inhibition at 0.01 µM in assay [1] amounted to 92%. Also, the results for the IC50 in assay [2] and in assay [3] were 170 nM and 106 nM, respectively.

With `N#Cc1cnc(Nc2cc(-c3c(F)cccc3OC[C@@H]3CNCCO3)[nH]n2)cn1` [Example 55, (S)-5-((5-(2-fluoro-6-(morpholin-2-ylmethoxy)phenyl)-1H-pyrazol-3-yl)amino)pyrazine-2-carbonitrile], in assay [1], the inhibition at 0.01 µM is 82%. Moreover, the IC50 in assay [2] was found to be 315 nM; in assay [3], 153 nM.

On to `COc1cc(Cl)cc(OC[C@H]2CCCNC2)c1-c1cc(Nc2cnc(C#N)cn2)n[nH]1` [Example 40, (S)-5-((5-(4-chloro-2-methoxy-6-(piperidin-3-ylmethoxy)phenyl)-1H-pyrazol-3-yl)amino)pyrazine-2-carbonitrile], for which the IC50 in assay [1] came to 0.88 nM; in assay [2], 5.5 nM; in assay [3], 6.6 nM.

For `COc1cc(Cl)cc(OCC2CNC2)c1-c1cc(Nc2cnc(C#N)cn2)n[nH]1` [Example 67, 5-((5-(2-(azetidin-3-ylmethoxy)-4-chloro-6-methoxyphenyl)-1H-pyrazol-3-yl)amino)pyrazine-2-carbonitrile], the IC50 was found to be 1.72 nM in assay [1], 8.7 nM in assay [2] and 9.1 nM in assay [3].

With `CC(C)Oc1cccc(OC[C@H]2CCCNC2)c1-c1cc(Nc2cnc(C#N)cn2)n[nH]1` [Example 36, (S)-5-((5-(2-isopropoxy-6-(piperidin-3-ylmethoxy)phenyl)-1H-pyrazol-3-yl)amino)pyrazine-2-carbonitrile], the inhibition at 0.01 µM in assay [1] was found to be 63%. For the same molecule, the IC50 came out at 698 nM in assay [2] and 807 nM in assay [3].

On to `Cc1cc(F)c(-c2cc(Nc3cnc(C#N)cn3)n[nH]2)c(OC[C@H]2CCCNC2)c1` [Example 63, (S)-5-((5-(2-fluoro-4-methyl-6-(piperidin-3-ylmethoxy)phenyl)-1H-pyrazol-3-yl)amino)pyrazine-2-carbonitrile], for which the IC50 in assay [1] was found to be 1.66 nM; in assay [2], 52.6 nM; in assay [3], 40.2 nM.

As for `N#Cc1cnc(Nc2cc(-c3c(F)cccc3OCC3CNC3)[nH]n2)cn1` [Example 53, 5-((5-(2-(azetidin-3-ylmethoxy)-6-fluorophenyl)-1H-pyrazol-3-yl)amino)pyrazine-2-carbonitrile], the inhibition at 0.01 µM in assay [1] stood at 95%. Besides, the values for the IC50 in assay [2] and in assay [3] were 89.4 nM and 72 nM, respectively.

Turning to `COc1cc(Br)cc(OC[C@H]2CCNC2)c1-c1cc(Nc2cnc(C#N)cn2)n[nH]1` [Example 70, (S)-5-((5-(4-bromo-2-methoxy-6-(pyrrolidin-3-ylmethoxy)phenyl)-1H-pyrazol-3-yl)amino)pyrazine-2-carbonitrile], the IC50 came out at 1.16 nM in assay [1], 4.9 nM in assay [2] and 3.6 nM in assay [3].

Turning to `N#Cc1cnc(Nc2cc(-c3c(F)cc(Br)cc3OC[C@H]3CCCNC3)[nH]n2)cn1` [Example 59, (S)-5-((5-(4-bromo-2-fluoro-6-(piperidin-3-ylmethoxy)phenyl)-1H-pyrazol-3-yl)amino)pyrazine-2-carbonitrile], the IC50 in assay [1] worked out at 2.27 nM; in assay [2] it was 60 nM; in assay [3], 60.8 nM.
